Measured values reported in patent publication US12391737B2, “Soluble NPY2 receptor agonists” (Boehringer Ingelheim International GmbH, priority 2020, dated 2025).

What was measured:
[1] = molecular target: T1, Human Neuropeptide Y2 Receptor (Homo sapiens, UniProt P49146); assay: Radioligand binding competition assay (RLB); conditions: Table 3, 125I-PYY(1-36) competition; read-out: Ki
T1 construct: purchased CHEMICON HTS066M
T1 sequence (P49146 1-381): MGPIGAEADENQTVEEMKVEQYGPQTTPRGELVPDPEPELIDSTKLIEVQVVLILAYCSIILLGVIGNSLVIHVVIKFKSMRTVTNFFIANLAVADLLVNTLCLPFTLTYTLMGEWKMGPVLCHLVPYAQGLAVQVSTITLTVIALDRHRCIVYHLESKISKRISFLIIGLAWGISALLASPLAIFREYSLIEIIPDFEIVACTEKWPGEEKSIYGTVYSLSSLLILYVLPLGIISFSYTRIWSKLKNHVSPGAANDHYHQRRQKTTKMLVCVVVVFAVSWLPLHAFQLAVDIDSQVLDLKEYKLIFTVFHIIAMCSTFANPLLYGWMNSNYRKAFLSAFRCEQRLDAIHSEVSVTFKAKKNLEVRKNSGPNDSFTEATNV
Method in brief: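 Filtration competition binding on membranes from cells expressing the receptor, 0.5 μg protein/well, in 50 mM HEPES, 5 mM MgCl2, 1 mM CaCl2, pH 7.4, with 0.2% ovalbumin. Incubation ran 2 h at room temperature, followed by GF/C filtration and scintillation counting. IC50 came from nonlinear sigmoidal fits.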

Solubility determination = conditions: for Sol6: pH 6; for Sol7: pH 7
Method in brief: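 Sample: TFA-salt peptide at 10 mg/ml target in 0.1 M Na diphosphate, pH 6.4 or 7.0, shaken 2 h RT, filtered, diluted to 1 mg/ml.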

Ki [1] [nM]	Sol6 (Solubility determination) [mg/mL]	Sol7 (Solubility determination) [mg/mL]	Structure (SMILES)
2.85	9.7	10.0	CC(C)CC(=O)N[C@@H](C)C(=O)N1CCC[C@H]1C(=O)N[C@@H](CCC(=O)O)C(=O)N[C@@H](CCCCNC(=O)CCCCCNC(=O)CC[C@H](NC(=O)CCCCCCCCCCCCCCCCC(=O)O)C(=O)O)C(=O)N1CCC[C@H]1C(=O)N[C@@H](CCC(=O)O)C(=O)N[C@@H](CCC(=O)O)C(=O)N[C@@H](CC(=O)O)C(=O)N[C@@H](C)C(=O)N[C@H](C(=O)N1CCC[C@H]1C(=O)N[C@@H](CCC(=O)O)C(=O)N[C@@H](CCC(=O)O)C(=O)N[C@@H](CC(C)C)C(=O)N[C@@H](CCC(N)=O)C(=O)N[C@@H](CCCNC(=N)N)C(=O)N[C@@H](Cc1ccc(O)cc1)C(=O)N[C@@H](Cc1ccc(O)cc1)C(=O)N[C@H](C(=O)N[C@H](C(=O)N[C@@H](CC(C)C)C(=O)N[C@@H](CCCNC(=N)N)C(=O)N[C@@H](Cc1c[nH]cn1)C(=O)N[C@@H](Cc1ccc(O)cc1)C(=O)N[C@@H](Cc1ccc(O)cc1)C(=O)N[C@@H](CC(N)=O)C(=O)N[C@@H](Cc1c[nH]c2ccccc12)C(=O)N[C@@H](CC(C)C)C(=O)N[C@H](C(=O)N[C@@H](CCCNC(=N)N)C(=O)N[C@@H](CCC(N)=O)C(=O)N[C@@H](CCCNC(=N)N)C(=O)N[C@@H](Cc1ccc(O)cc1)C(N)=O)[C@@H](C)O)[C@@H](C)O)C(C)C)[C@@H](C)O [Compound 148, N{alpha-4}-(3-methylbutanoyl)-N{epsilon-7}-(6-[(4S)-4-carboxy-4-(17-carboxyheptadecanamido)butanamido]hexanoyl)-[4A,7K,9E,13T,18Q,22V,23T,28Y,30W,31L]-hPYY(4-36)]
1.57	10.0	10.0	CC(C)CC(=O)N[C@@H](C)C(=O)N1CCC[C@H]1C(=O)N[C@@H](C)C(=O)N[C@@H](CCCCNC(=O)CCCCCNC(=O)CC[C@H](NC(=O)CCCCCCCCCCCCCCCCC(=O)O)C(=O)O)C(=O)N1CCC[C@H]1C(=O)N[C@@H](CCC(=O)O)C(=O)N[C@@H](C)C(=O)N[C@@H](CC(=O)O)C(=O)N[C@@H](C)C(=O)N[C@@H](CCC(=O)O)C(=O)N1CCC[C@H]1C(=O)N[C@@H](CCC(=O)O)C(=O)N[C@@H](CCC(=O)O)C(=O)N[C@@H](CC(C)C)C(=O)N[C@@H](CCC(N)=O)C(=O)N[C@@H](CCCNC(=N)N)C(=O)N[C@@H](Cc1ccc(O)cc1)C(=O)N[C@@H](Cc1ccc(O)cc1)C(=O)N[C@H](C(=O)N[C@@H](C)C(=O)N[C@@H](CC(C)C)C(=O)N[C@@H](CCCNC(=N)N)C(=O)N[C@@H](Cc1c[nH]cn1)C(=O)N[C@@H](Cc1ccc(O)cc1)C(=O)N[C@@H](Cc1ccc(O)cc1)C(=O)N[C@@H](CC(N)=O)C(=O)N[C@@H](Cc1c[nH]c2ccccc12)C(=O)N[C@@H](CC(C)C)C(=O)N[C@H](C(=O)N[C@@H](CCCNC(=N)N)C(=O)N[C@@H](CCC(N)=O)C(=O)N[C@@H](CCCNC(=N)N)C(=O)N[C@@H](Cc1ccc(O)cc1)C(N)=O)[C@@H](C)O)C(C)C [Compound 3, N{alpha-4}-(3-methylbutanoyl)-N{epsilon-7}-(6-[(4S)-4-carboxy-4-(17-carboxyheptadecanamido)butanamido]hexanoyl)[4A,6A,7K,9E,10A,13E,18Q,22V,23A,28Y,30W,31L]-hPYY(4-36)]
3.97	>10.0	>10.0	CC[C@H](C)[C@H](NC(=O)[C@H](CCC(=O)O)NC(=O)[C@H](CCC(=O)O)NC(=O)[C@@H]1CCCN1C(=O)[C@H](CC(C)C)NC(=O)[C@H](C)NC(=O)[C@H](CC(=O)O)NC(=O)[C@H](CCC(=O)O)NC(=O)[C@H](CCC(=O)O)NC(=O)[C@@H]1CCCN1C(=O)[C@H](CCCCNC(=O)CCCCCNC(=O)CC[C@H](NC(=O)CCCCCCCCCCCCCCCCC(=O)O)C(=O)O)NC(=O)[C@H](CCC(=O)O)NC(=O)[C@@H]1CCCN1C(=O)[C@H](C)NC(=O)CC(C)C)C(=O)N[C@@H](CCC(N)=O)C(=O)N[C@@H](CCCNC(=N)N)C(=O)N[C@@H](Cc1ccc(O)cc1)C(=O)N[C@@H](Cc1ccc(O)cc1)C(=O)N[C@H](C(=O)N[C@@H](CO)C(=O)N[C@@H](CC(C)C)C(=O)N[C@@H](CCCNC(=N)N)C(=O)N[C@@H](Cc1c[nH]cn1)C(=O)N[C@@H](Cc1ccc(O)cc1)C(=O)N[C@@H](Cc1ccc(O)cc1)C(=O)N[C@@H](CC(N)=O)C(=O)N[C@@H](Cc1c[nH]c2ccccc12)C(=O)N[C@@H](CC(C)C)C(=O)N[C@H](C(=O)N[C@@H](CCCNC(=N)N)C(=O)N[C@@H](CCC(N)=O)C(=O)N[C@@H](CCCNC(=N)N)C(=O)N[C@@H](Cc1ccc(O)cc1)C(N)=O)[C@@H](C)O)C(C)C [Compound 142, N{alpha-4}-(3-methylbutanoyl)-N{epsilon-7}-(6-[(4S)-4-carboxy-4-(17-carboxyheptadecanamido)butanamido]hexanoyl)-[4A,7K,9E,13L,17I,18Q,22V,28Y,30W,31L]-hPYY(4-36)]
3.53	>10.0	10.0	CC[C@H](C)[C@H](NC(=O)[C@H](CCC(=O)O)NC(=O)[C@H](CCC(=O)O)NC(=O)[C@@H]1CCCN1C(=O)[C@@H](NC(=O)[C@H](C)NC(=O)[C@H](CC(=O)O)NC(=O)[C@H](CCC(=O)O)NC(=O)[C@H](CCC(=O)O)NC(=O)[C@@H]1CCCN1C(=O)[C@H](CCCCNC(=O)CCCCCNC(=O)CC[C@H](NC(=O)CCCCCCCCCCCCCCCCC(=O)O)C(=O)O)NC(=O)[C@H](CCC(=O)O)NC(=O)[C@@H]1CCCN1C(=O)[C@H](C)NC(=O)CC(C)C)[C@@H](C)O)C(=O)N[C@@H](CCC(N)=O)C(=O)N[C@@H](CCCNC(=N)N)C(=O)N[C@@H](Cc1ccc(O)cc1)C(=O)N[C@@H](Cc1ccc(O)cc1)C(=O)N[C@H](C(=O)N[C@@H](CO)C(=O)N[C@@H](CC(C)C)C(=O)N[C@@H](CCCNC(=N)N)C(=O)N[C@@H](Cc1c[nH]cn1)C(=O)N[C@@H](Cc1ccc(O)cc1)C(=O)N[C@@H](CCC(N)=O)C(=O)N[C@@H](CC(N)=O)C(=O)N[C@@H](Cc1c[nH]c2ccccc12)C(=O)N[C@@H](CC(C)C)C(=O)N[C@H](C(=O)N[C@@H](CCCNC(=N)N)C(=O)N[C@@H](CCC(N)=O)C(=O)N[C@@H](CCCNC(=N)N)C(=O)N[C@@H](Cc1ccc(O)cc1)C(N)=O)[C@@H](C)O)C(C)C [Compound 113, N{alpha-4}-(3-methylbutanoyl)-N{epsilon-7}-(6-[(4S)-4-carboxy-4-(17-carboxyheptadecanamido)butanamido]hexanoyl)-[4A,7K,9E,13T,17I,18Q,22V,28Q,30W,31L]-hPYY(4-36)]
